Reference: ChEMBL document CHEMBL4330123, “Synthesis of 1',2'-methano-2',3'-dideoxynucleosides as potential antivirals” (Bioorg Med Chem Lett, 2019)
Active and inactive are the calls of the source.

Tests used:
[1] = system: HCT cell line; assay: Antiproliferative activity against human HCT cells up to 100 uM by Celltiter-Glo assay; format: functional, cell-based
[2] = system: Human gammaherpesvirus 4; assay: Antiviral activity against EBV assessed as inhibition of viral replication by cell-based assay; format: functional, organism-based
[3] = system: Human alphaherpesvirus 3; assay: Antiviral activity against VZV assessed as inhibition of viral replication by cell-based assay; format: functional, organism-based
[4] = system: Cytomegalovirus; assay: Antiviral activity against CMV assessed as inhibition of viral replication by cell-based assay; format: functional, organism-based
[5] = system: A-375; assay: Antiproliferative activity against human A375 cells up to 100 uM by Celltiter-Glo assay; format: functional, cell-based
[6] = system: SW480; assay: Antiproliferative activity against human SW480 cells up to 100 uM by Celltiter-Glo assay; format: functional, cell-based
[7] = system: Human alphaherpesvirus 1; assay: Antiviral activity against HSV1 assessed as inhibition of viral replication by cell-based assay; format: functional, organism-based

CC(C)OC(=O)[C@H](C)NP(=O)(OC[C@@H]1C[C@H]2C[C@@]2(n2ccc(N)nc2=O)O1)Oc1ccccc1 (stereo partly drawn)
inactive: Activity [1] | inhibition [2] | inhibition [3] | inhibition [4] | Activity [5] | Activity [6] | inhibition [7]

CC(C)OC(=O)[C@H](C)NP(=O)(OC[C@@H]1C[C@H]2C[C@@]2(n2ccc(=O)[nH]c2=O)O1)Oc1ccccc1 (stereo partly drawn)
inactive: Activity [1] | inhibition [2] | inhibition [3] | inhibition [4] | Activity [5] | Activity [6] | inhibition [7]

O=c1ccn([C@@]23C[C@@H]2C[C@@H](CO)O3)c(=O)[nH]1
inactive: Activity [1] | inhibition [2] | inhibition [3] | inhibition [4] | Activity [5] | Activity [6] | inhibition [7]

Nc1ccn([C@@]23C[C@@H]2C[C@@H](CO)O3)c(=O)n1
inactive: Activity [1] | inhibition [2] | inhibition [3] | inhibition [4] | Activity [5] | Activity [6] | inhibition [7]
